pIC50: −log10 of the molar value.

The test deals with T1, hROMK (hKir1.1) (Homo sapiens, UniProt P48048).
T1 construct: expressed in transfected cells
T1 sequence (P48048 1-391): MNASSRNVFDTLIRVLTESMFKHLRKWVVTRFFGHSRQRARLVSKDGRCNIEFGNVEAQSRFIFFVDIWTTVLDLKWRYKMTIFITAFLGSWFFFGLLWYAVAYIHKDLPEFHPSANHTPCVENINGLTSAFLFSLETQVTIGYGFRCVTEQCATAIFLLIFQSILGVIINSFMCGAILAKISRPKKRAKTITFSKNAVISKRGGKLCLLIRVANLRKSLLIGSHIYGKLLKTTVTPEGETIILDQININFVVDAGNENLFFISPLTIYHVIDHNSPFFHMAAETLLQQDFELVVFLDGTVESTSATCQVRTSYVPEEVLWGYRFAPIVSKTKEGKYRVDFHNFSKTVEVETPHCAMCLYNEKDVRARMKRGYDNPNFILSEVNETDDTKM
The test is described as follows: Thallium Flux Assay (ROMK channel functional thallium flux assay). The format is cell-based. Conditions: HEK293 cells stably expressing hROMK (hKir1.1); FluxOR thallium flux, FLIPR-Tetra, 30 min compound incubation; read-out: ROMK TI IC50. An outline of the steps:
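HEK293 cells stably expressing hROMK (hKir1.1) loaded with FluxOR dye 90 min at ambient temperature, then compound 30 min before thallium/potassium stimulant (final 3 mM Tl/0.3 mM K). ROMK-sensitive flux defined by 3 μM standard inhibitor; data as % fluorescence change.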
`Cc1c([C@@H](O)CN2CCC3(CC2)CCN(c2cnsc2)C3=O)ccc2c1COC2=O` [Example 72, (R)-8-(2-hydroxy-2-(4-methyl-1-oxo-1,3-dihydroisobenzofuran-5-yl)ethyl)-2-(isothiazol-4-yl)-2,8-diazaspiro[4.5]decan-1-one]: the pIC50 is 7.70.
Under `Cc1c([C@@H](O)CN2CCC3(CC2)CCN(c2ccncc2F)C3=O)ccc2c1COC2=O` [Example 73, (R)-2-(3-fluoropyridin-4-yl)-8-(2-hydroxy-2-(4-methyl-1-oxo-1,3-dihydroisobenzofuran-5-yl)ethyl)-2,8-diazaspiro[4.5]decan-1-one] stands 6.38.
The same measure for `COc1cc(N2CCC3(CCN(C[C@H](O)c4ccc5c(c4C)COC5=O)CC3)C2=O)ccn1` [Example 74, (R)-8-(2-hydroxy-2-(4-methyl-1-oxo-1,3-dihydroisobenzofuran-5-yl)ethyl)-2-(2-methoxypyridin-4-yl)-2,8-diazaspiro[4.5]decan-1-one]: 7.25; for `Cc1c([C@@H](O)CN2CCC3(CC2)CCN(c2ccc(OC(F)F)nc2)C3=O)ccc2c1COC2=O` [Example 76, (R)-2-(6-(difluoromethoxy)pyridin-3-yl)-8-(2-hydroxy-2-(4-methyl-1-oxo-1,3-dihydroisobenzofuran-5-yl)ethyl)-2,8-diazaspiro[4.5]decan-1-one]: 6.49.
Under `COc1ccncc1N1CCC2(CCN(C[C@H](O)c3ccc4c(c3C)COC4=O)CC2)C1=O` [Example 77, (R)-8-(2-hydroxy-2-(4-methyl-1-oxo-1,3-dihydroisobenzofuran-5-yl)ethyl)-2-(4-methoxypyridin-3-yl)-2,8-diazaspiro[4.5]decan-1-one] stands 6.16; under `Cc1c([C@@H](O)CN2CCC3(CC2)CC(=O)N(c2ccncc2)C3)ccc2c1COC2=O` [Example 79, (R)-8-(2-hydroxy-2-(4-methyl-1-oxo-1,3-dihydroisobenzofuran-5-yl)ethyl)-2-(pyridin-4-yl)-2,8-diazaspiro[4.5]decan-3-one], 7.25.
In the case of `COc1nccc(N2CCC3(CCN(C[C@H](O)c4ccc5c(c4C)COC5=O)CC3)C2=O)n1` [Example 80, (R)-8-(2-hydroxy-2-(4-methyl-1-oxo-1,3-dihydroisobenzofuran-5-yl)ethyl)-2-(2-methoxypyrimidin-4-yl)-2,8-diazaspiro[4.5]decan-1-one], the pIC50 was 7.84.
As to `Cc1cc(N2CCCC3(CCN(C[C@H](O)c4ccc5c(c4C)COC5=O)CC3)C2=O)sn1` [Example 81, (R)-9-(2-hydroxy-2-(4-methyl-1-oxo-1,3-dihydroisobenzofuran-5-yl)ethyl)-2-(3-methylisothiazol-5-yl)-2,9-diazaspiro[5.5]undecan-1-one], the pIC50 was 6.76.
The same measure for `Cc1c([C@@H](O)CN2CCC3(CC2)CCN(c2ccc(=O)n(C)c2)C3=O)ccc2c1COC2=O` [Example 82, (R)-8-(2-hydroxy-2-(4-methyl-1-oxo-1,3-dihydroisobenzofuran-5-yl)ethyl)-2-(1-methyl-6-oxo-1,6-dihydropyridin-3-yl)-2,8-diazaspiro[4.5]decan-1-one]: 6.37; for `Cc1c([C@@H](O)CN2CCC3(CC2)CCN(c2nc(CO)ns2)C3=O)ccc2c1COC2=O` [Example 83, (R)-8-(2-hydroxy-2-(4-methyl-1-oxo-1,3-dihydroisobenzofuran-5-yl)ethyl)-2-(3-(hydroxymethyl)-1,2,4-thiadiazol-5-yl)-2,8-diazaspiro[4.5]decan-1-one]: 6.08.
Under `COc1cc(N2CC3(CCN(C[C@H](O)c4ccc5c(c4C)COC5=O)CC3)CC2=O)ccn1` [Example 84, (R)-8-(2-hydroxy-2-(4-methyl-1-oxo-1,3-dihydroisobenzofuran-5-yl)ethyl)-2-(2-methoxypyridin-4-yl)-2,8-diazaspiro[4.5]decan-3-one] stands 6.83; under `Cc1c([C@@H](O)CN2CCC3(CCCN(c4ccncc4)C3=O)CC2)ccc2c1COC2=O` [Example 85, (R)-9-(2-hydroxy-2-(4-methyl-1-oxo-1,3-dihydroisobenzofuran-5-yl)ethyl)-2-(pyridin-4-yl)-2,9-diazaspiro[5.5]undecan-1-one], 6.10.
The same measure for `Cc1c([C@@H](O)CN2CCC3(CC2)CN(c2ccncc2)C(=O)O3)ccc2c1COC2=O` [Example 86, (R)-8-(2-hydroxy-2-(4-methyl-1-oxo-1,3-dihydroisobenzofuran-5-yl)ethyl)-3-(pyridin-4-yl)-1-oxa-3,8-diazaspiro[4.5]decan-2-one]: 6.25; for `Cc1c([C@@H](O)CN2CCC3(CC2)CCN(c2cc(C(F)(F)F)ncn2)C3=O)ccc2c1COC2=O` [Example 87, (R)-8-(2-hydroxy-2-(4-methyl-1-oxo-1,3-dihydroisobenzofuran-5-yl)ethyl)-2-(6-(trifluoromethyl)pyrimidin-4-yl)-2,8-diazaspiro[4.5]decan-1-one]: 6.19; for `Cc1cc(N2CCC3(CCN(C[C@H](O)c4ccc5c(c4C)COC5=O)CC3)C2=O)ccn1` [Example 88, (R)-8-(2-hydroxy-2-(4-methyl-1-oxo-1,3-dihydroisobenzofuran-5-yl)ethyl)-2-(2-methylpyridin-4-yl)-2,8-diazaspiro[4.5]decan-1-one]: 6.89.
In the case of `COc1nccc(N2CCC3(CCN(C[C@H](O)c4ccc(-n5cnnn5)nc4C)CC3)C2=O)n1` [Example 89, (R)-8-(2-hydroxy-2-(2-methyl-6-(1H-tetrazol-1-yl)pyridin-3-yl)ethyl)-2-(2-methoxypyrimidin-4-yl)-2,8-diazaspiro[4.5]decan-1-one], the pIC50 is 6.10.
Under `Cc1c([C@@H](O)CN2CCC3(CC2)CCN(c2ccnnc2)C3=O)ccc2c1COC2=O` [Example 90, (R)-8-(2-hydroxy-2-(4-methyl-1-oxo-1,3-dihydroisobenzofuran-5-yl)ethyl)-2-(pyridazin-4-yl)-2,8-diazaspiro[4.5]decan-1-one] stands 6.92; under `Cc1c([C@@H](O)CN2CCC3(CC2)CC(=O)N(c2ccnc(Cl)n2)C3)ccc2c1COC2=O` [Example 91, (R)-2-(2-chloropyrimidin-4-yl)-8-(2-hydroxy-2-(4-methyl-1-oxo-1,3-dihydroisobenzofuran-5-yl)ethyl)-2,8-diazaspiro[4.5]decan-3-one], 6.11; under `Cc1c([C@@H](O)CN2CCC3(CC2)CCN(c2ccnc(Cl)n2)C3=O)ccc2c1COC2=O` [Example 92, (R)-2-(2-chloropyrimidin-4-yl)-8-(2-hydroxy-2-(4-methyl-1-oxo-1,3-dihydroisobenzofuran-5-yl)ethyl)-2,8-diazaspiro[4.5]decan-1-one], 6.96.
The same measure for `Cc1nc(-n2cnnn2)ccc1[C@@H](O)CN1CCC2(CC1)CCN(c1ccc(=O)n(C)n1)C2=O` [Example 93, (R)-8-(2-hydroxy-2-(2-methyl-6-(1H-tetrazol-1-yl)pyridin-3-yl)ethyl)-2-(1-methyl-6-oxo-1,6-dihydropyridazin-3-yl)-2,8-diazaspiro[4.5]decan-1-one]: 6.59.
Under `Cc1c([C@@H](O)CN2CCC3(CC2)CCN(c2cn(C)c(=O)cn2)C3=O)ccc2c1COC2=O` [Example 94, (R)-8-(2-hydroxy-2-(4-methyl-1-oxo-1,3-dihydroisobenzofuran-5-yl)ethyl)-2-(4-methyl-5-oxo-4,5-dihydropyrazin-2-yl)-2,8-diazaspiro[4.5]decan-1-one] stands 6.57; under `Cc1c([C@@H](O)CN2CCC3(CC2)CN(c2ccc(=O)n(C)n2)C(=O)O3)ccc2c1COC2=O` [Example 95, (R)-8-(2-hydroxy-2-(4-methyl-1-oxo-1,3-dihydroisobenzofuran-5-yl)ethyl)-3-(1-methyl-6-oxo-1,6-dihydropyridazin-3-yl)-1-oxa-3,8-diazaspiro[4.5]decan-2-one], 6.31.
Consider `Cn1nc(N2CCC3(CCN(C[C@@H](O)c4cccc(-n5cnnn5)c4)CC3)C2=O)ccc1=O` [Example 96, (S)-8-(2-(3-(1H-tetrazol-1-yl)phenyl)-2-hydroxyethyl)-2-(1-methyl-6-oxo-1,6-dihydropyridazin-3-yl)-2,8-diazaspiro[4.5]decan-1-one], for which the pIC50 was 6.15.
Under `Cc1c([C@@H](O)CN2CCC3(CC2)C[C@H](C)N(c2ccc(=O)n(C)n2)C3=O)ccc2c1COC2=O` [Example 97, (S)-8-((R)-2-hydroxy-2-(4-methyl-1-oxo-1,3-dihydroisobenzofuran-5-yl)ethyl)-3-methyl-2-(1-methyl-6-oxo-1,6-dihydropyridazin-3-yl)-2,8-diazaspiro[4.5]decan-1-one] stands 6.42; under `Cc1c([C@@H](O)CN2CCC3(CC2)C[C@@H](C)N(c2ccc(=O)n(C)n2)C3=O)ccc2c1COC2=O` [Example 98, (R)-8-((R)-2-hydroxy-2-(4-methyl-1-oxo-1,3-dihydroisobenzofuran-5-yl)ethyl)-3-methyl-2-(1-methyl-6-oxo-1,6-dihydropyridazin-3-yl)-2,8-diazaspiro[4.5]decan-1-one], 7.26; under `Cc1nc(-n2cnnn2)ccc1[C@@H](O)CN1CCC2(CC1)CCN(c1ncns1)C2=O` [Example 99, (R)-8-(2-hydroxy-2-(2-methyl-6-(1H-tetrazol-1-yl)pyridin-3-yl)ethyl)-2-(1,2,4-thiadiazol-5-yl)-2,8-diazaspiro[4.5]decan-1-one], 6.62.

As usually defined, the pIC50 is the IC50 on a negative log10 scale, so that one unit is a factor of ten.

The values are drawn from patent US20170275298A1, “INHIBITORS OF THE RENAL OUTER MEDULLARY POTASSIUM CHANNEL” (Merck Sharp & Dohme Corp., priority 2014, published 2017).
